Here are results for one compound from patent publication US9855265B2, “Methods for treating cancer with TrkA receptor tyrosine kinase antagonists” (VM Oncology LLC, priority 2014, dated 2018).

The test system of assay [1] is NCI-N87 human stomach cancer cells. Nature of the assay: Cell Viability and Proliferation Assay, NCI-N87. Type of assay: cell-based. Conditions: after 24 incubation. As to the method: (§1) Cell Viability and Proliferation Assays. To assess the chemosensitivity of tumor cells, cell viability is measured by CellTiter-Glo® Luminescent Cell Viability Assay (Promega; Wis., USA) per the manufacturer's instruction. Briefly, 5×10^3 to 7×10^5 cells/ml are cultured in sterile 96-well plates in the presence of increasing concentrations of the drugs (test article, 0 to 100 μM), or vehicle in RPMI medium. The plates are then incubated for 24 to 96 h, and then 100 μl of CellTiter-Glo reagent is added to lyse the cells. After a 10-min incubation at room temperature, the luminescence is recorded in a luminometer with an integration time of 1 s per well. The luminescence signals for the drug-treated cells are normalized by the luminescence signal obtained from vehicle-treated cells. As an alternative method to quantitate cell viability, the trypan blue exclusion dye method was used. Vehicle- or drug-treated cells were assayed by adding trypan blue solution (0.4% in phosphate-buffered saline [PBS]) to the culture medium. After 3 min, the number of dead cells that retained the dye is compared to the total number of cells to calculate cell viability. GraphPad Prism 5 software is used to calculate IC50 and plot effect-dose curve of drugs. Multiplate reader: EnVision 2104 (PerkinElmer). % of control variability=100*[(X(drug_treated)−L(baseline))/(H(vehicle_control)−L(baseline))]. […]

For assay [2], the target named is T1, VEGFR2/KDR (Homo sapiens, UniProt P35968).
T1 construct: other kinases of recombinant human cytoplasmic domain
T1 sequence (P35968 786-1356 limits assumed): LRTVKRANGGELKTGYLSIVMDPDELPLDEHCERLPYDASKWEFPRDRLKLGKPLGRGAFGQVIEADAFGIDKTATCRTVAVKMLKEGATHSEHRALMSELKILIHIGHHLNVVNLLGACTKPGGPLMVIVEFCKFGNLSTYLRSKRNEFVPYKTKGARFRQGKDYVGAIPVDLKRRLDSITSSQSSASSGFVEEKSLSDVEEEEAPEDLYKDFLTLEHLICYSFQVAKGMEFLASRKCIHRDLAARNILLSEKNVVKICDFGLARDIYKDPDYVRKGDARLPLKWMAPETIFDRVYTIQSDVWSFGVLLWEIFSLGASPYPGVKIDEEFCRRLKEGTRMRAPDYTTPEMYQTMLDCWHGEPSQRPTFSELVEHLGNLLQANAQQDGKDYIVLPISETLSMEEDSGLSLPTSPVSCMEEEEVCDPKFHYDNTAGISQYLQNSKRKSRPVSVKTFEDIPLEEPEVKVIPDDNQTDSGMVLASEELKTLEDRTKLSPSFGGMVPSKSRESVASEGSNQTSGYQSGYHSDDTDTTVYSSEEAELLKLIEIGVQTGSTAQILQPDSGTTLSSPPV
The assay is described as follows: radiometric kinase assay, other kinases: VEGFR2/KDR. The settings on record: duplicate. The class given is biochemical. As to the method: (§2) Compound inhibition in a radiometric based mixed micelle assay: In a final reaction volume of 25 μL, TrkA (h) ([…]) is incubated with the kinase reaction buffer (20 mM HEPES (pH 7.5), 10 mM MgCl2, 1 mM EGTA, 0.02% Brij 35, 0.02 mg/ml BSA, 0.1 mM Na3VO4, 2 mM DTT, 1% DMSO), 0.2 mg/ml substrate PolyEY(4:1) and […], and [^33P-ATP](specific activity approx. 500 cpm/pmol, concentration as required). The reaction is initiated by the addition of the MgATP mix. After incubation for at least 40 minutes at room temperature, the reaction is stopped by the addition of 5 μL of a 3% phosphoric acid solution. 10 μL of the reaction is then spotted onto a P30 filtermat and washed three times for 5 minutes in 75 mM phosphoric acid and once in methanol prior to drying and scintillation counting. TrkA: Recombinant Human Cytoplasmic Domain (amino acids 441-796), Histidine-tagged, expressed in insect cells. Activated in vitro via auto-phosphorylation. Mw=42.8 kDa. Substrates for kinases: poly(EY) for TRKA; poly(EY)(4:1) with 2 mM MnCl2, average Mw=16 kDa Standard conditions (unless otherwise specified): 30 nM TRKA, 0.2 mg/ml poly(EY)+2 mM MnCl2, and 10 μM ([γ-^33P]) ATP. Using the similar assay condition with other kinases of recombinant human cytoplasmic domain, the activities of other kinases could be also measured.

For assay [3], the target named is ABL1 (Homo sapiens, UniProt P00519). The assay is described as follows: radiometric kinase assay, other kinases: ABL1. Type of assay: biochemical. Conditions: duplicate. As for the experimental part:
as §2

Assay [4] has as its target PKD2/PRKD2 (Homo sapiens, UniProt Q9BZL6). The assay is described as follows: radiometric kinase assay, other kinases: PKD2/PRKD2. Type of assay: biochemical. The settings on record: duplicate. As to the method:
as §2

For assay [5], the target named is PKCmu/PKD1 (Homo sapiens, UniProt Q15139). Nature of the assay: radiometric kinase assay, other kinases: PKCmu/PKD1. The settings on record: duplicate. The class given is biochemical. As to the method: as §2
PKCmu/PKD1, sequence (Q15139 whole entry): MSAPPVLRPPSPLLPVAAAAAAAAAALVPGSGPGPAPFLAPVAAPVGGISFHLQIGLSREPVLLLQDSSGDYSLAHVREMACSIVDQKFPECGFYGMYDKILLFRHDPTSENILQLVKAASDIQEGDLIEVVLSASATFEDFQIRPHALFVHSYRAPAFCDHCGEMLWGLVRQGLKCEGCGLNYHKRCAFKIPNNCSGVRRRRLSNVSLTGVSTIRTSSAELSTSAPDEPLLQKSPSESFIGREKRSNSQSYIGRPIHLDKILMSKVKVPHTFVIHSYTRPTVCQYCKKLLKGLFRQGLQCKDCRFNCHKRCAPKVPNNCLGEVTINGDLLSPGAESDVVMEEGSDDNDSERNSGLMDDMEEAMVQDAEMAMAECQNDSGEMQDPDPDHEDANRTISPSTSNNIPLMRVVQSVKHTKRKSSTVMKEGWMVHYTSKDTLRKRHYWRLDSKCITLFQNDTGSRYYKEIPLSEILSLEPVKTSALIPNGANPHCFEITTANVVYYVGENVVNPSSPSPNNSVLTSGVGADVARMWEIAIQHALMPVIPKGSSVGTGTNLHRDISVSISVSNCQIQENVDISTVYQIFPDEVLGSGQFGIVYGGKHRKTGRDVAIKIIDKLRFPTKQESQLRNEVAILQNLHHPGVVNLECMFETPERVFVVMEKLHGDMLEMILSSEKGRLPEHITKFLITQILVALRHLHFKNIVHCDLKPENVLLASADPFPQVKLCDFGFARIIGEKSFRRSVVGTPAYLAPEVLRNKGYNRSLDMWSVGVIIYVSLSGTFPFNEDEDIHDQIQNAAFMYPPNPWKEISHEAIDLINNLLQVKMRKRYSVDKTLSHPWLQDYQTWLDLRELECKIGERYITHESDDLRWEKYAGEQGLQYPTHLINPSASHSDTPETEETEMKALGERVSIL
For assay [6], the system named is BxPC-3 human pancreatic cancer cells. Nature of the assay: Cell Viability and Proliferation Assay, BxPC-3. The class given is cell-based. Conditions: after 24 incubation. As for the experimental part: as §1
Assay [7] has as its system SK-HEP-1 human liver cancer cells. The assay is described as follows: Cell Viability and Proliferation Assay, SK-HEP-1. The class given is cell-based. Conditions: SK-HEP1, after 24 incubation. As for the experimental part: as §1
In assay [8] the test system is PANC-1 subcutaneous human pancreatic cancer xenografts. The assay is described as follows: PANC-1 Subcutaneous Human Pancreatic Cancer Xenograft Mouse Model. A general note: In xenograft studies the graft and the host belong to different species.
Method: Temperature: 22±3° C. Humidity: 50±20%. Light cycle: 12 hours light and 12 hours dark. Cages: Polycarbonate cages of 300 mm×180 mm×150 mm embedded with the soft wood material were used. The bedding was changed twice a week. Diet: Animals had free access to a certified commercial laboratory diet. Concentrations of contaminants in the diet are routinely analyzed by the manufacturers to ensure the contaminants are below their allowable maximum and thus would not affect the tumor growth.
Water: Animals had free access to sterile drinking water. Cage identification: The identification labels for each cage contained the following information: number of animals, sex, strain, date received, treatment, group number and the starting date of the treatment. Briefly, PANC-1 cell line was originally purchased from the ATCC (CRL-1469) and the PANC-1 primary cell line was derived from the PANC-1 subcutaneously xenograft tumors. The PANC-1 primary cells were maintained in vitro as monolayer culture in DMEM medium supplemented with 10% heat inactivated fetal bovine serum, 100 U/ml penicillin and 100 μg/ml streptomycin and L-glutamine (2 mM) at 37° C. in an atmosphere of 5% CO2 air. The cells growing in exponential phase were harvested and counted for tumor inoculation.
Tumor Cell Inoculation and Randomization. Each animal was inoculated subcutaneously on the right flank with the PANC-1 primary tumor cells (5×10^6/animal) in 0.1 mL of PBS. Tumor development was allowed undisrupted until mean tumor volume reached approximately 85 mm^3. Animals were then randomized into 6 groups, with each group consisting of 8 animals. The test articles were administered to the tumor-bearing animals according to predetermined regimens. […] At the time of routine monitoring, the animals were checked for any effects of tumor growth on normal behavior such as mobility, food and water consumption (by looking only), body weight (BW) gain/loss (BW was measured twice weekly), eye/hair matting and any other abnormal effect. Death and observed clinical signs were recorded on the basis of the numbers of animals within each subset.
Tumor Measurement and the Endpoints: The major endpoint was to evaluate if the tumor growth could be inhibited. Tumor measurement was conducted twice weekly with a caliper and the tumor volume (mm3) is estimated using the formula: TV=a×b^2/2, where a and b are long and short diameters of a tumor, respectively. The tumor sizes were then used for T/C value and TGI (tumor growth inhibition), which are indicators of anti-tumor effectiveness. The T/C value (in percent) is an indication of antitumor effect. T and C are the mean volumes of the treated and control groups, respectively, on a given day. BW change, expressed as %, is calculated using the following formula: BW change (%)=(BW_DayX/BW_Day0)×100, where BW_DayX is BW on a given day, and BW_Day0 was BW on Day 0 (tumor inoculation).
Tumor Sample Collection: Two tumor samples from Group 1, 2 and 3, respectively; six tumor samples from Group 4; five tumor samples from Group 5 and 6, respectively, were snap frozen in liquid nitrogen and kept at −80° C. Total 22 tumor samples were collected.
Statistical Analyses: A one-way ANOVA was performed to compare tumor volumes among groups. All data were analyzed using the SPSS 17.0 software; p<0.05 was considered statistically significant.
The target in assay [9] is T2, TIE2/TEK (Homo sapiens, UniProt Q02763).
T2 construct: other kinases of recombinant human cytoplasmic domain
T2 sequence (Q02763 770-1124 limits assumed): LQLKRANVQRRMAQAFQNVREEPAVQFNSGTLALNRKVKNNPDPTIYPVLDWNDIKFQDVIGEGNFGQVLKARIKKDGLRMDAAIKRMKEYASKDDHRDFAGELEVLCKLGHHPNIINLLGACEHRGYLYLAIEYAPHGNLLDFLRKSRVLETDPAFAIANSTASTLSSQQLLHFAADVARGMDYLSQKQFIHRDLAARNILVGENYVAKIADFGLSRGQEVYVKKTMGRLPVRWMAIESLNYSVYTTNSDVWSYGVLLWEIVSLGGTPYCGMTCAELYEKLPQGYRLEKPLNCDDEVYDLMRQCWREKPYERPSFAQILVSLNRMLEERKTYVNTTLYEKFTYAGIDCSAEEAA
Nature of the assay: radiometric kinase assay, other kinases: TIE2/TEK. Conditions: duplicate. Type of assay: biochemical. As for the experimental part: as §2

A value given as a limit tells only on which side of the number the result lay.

ABL1, sequence (P00519 whole entry): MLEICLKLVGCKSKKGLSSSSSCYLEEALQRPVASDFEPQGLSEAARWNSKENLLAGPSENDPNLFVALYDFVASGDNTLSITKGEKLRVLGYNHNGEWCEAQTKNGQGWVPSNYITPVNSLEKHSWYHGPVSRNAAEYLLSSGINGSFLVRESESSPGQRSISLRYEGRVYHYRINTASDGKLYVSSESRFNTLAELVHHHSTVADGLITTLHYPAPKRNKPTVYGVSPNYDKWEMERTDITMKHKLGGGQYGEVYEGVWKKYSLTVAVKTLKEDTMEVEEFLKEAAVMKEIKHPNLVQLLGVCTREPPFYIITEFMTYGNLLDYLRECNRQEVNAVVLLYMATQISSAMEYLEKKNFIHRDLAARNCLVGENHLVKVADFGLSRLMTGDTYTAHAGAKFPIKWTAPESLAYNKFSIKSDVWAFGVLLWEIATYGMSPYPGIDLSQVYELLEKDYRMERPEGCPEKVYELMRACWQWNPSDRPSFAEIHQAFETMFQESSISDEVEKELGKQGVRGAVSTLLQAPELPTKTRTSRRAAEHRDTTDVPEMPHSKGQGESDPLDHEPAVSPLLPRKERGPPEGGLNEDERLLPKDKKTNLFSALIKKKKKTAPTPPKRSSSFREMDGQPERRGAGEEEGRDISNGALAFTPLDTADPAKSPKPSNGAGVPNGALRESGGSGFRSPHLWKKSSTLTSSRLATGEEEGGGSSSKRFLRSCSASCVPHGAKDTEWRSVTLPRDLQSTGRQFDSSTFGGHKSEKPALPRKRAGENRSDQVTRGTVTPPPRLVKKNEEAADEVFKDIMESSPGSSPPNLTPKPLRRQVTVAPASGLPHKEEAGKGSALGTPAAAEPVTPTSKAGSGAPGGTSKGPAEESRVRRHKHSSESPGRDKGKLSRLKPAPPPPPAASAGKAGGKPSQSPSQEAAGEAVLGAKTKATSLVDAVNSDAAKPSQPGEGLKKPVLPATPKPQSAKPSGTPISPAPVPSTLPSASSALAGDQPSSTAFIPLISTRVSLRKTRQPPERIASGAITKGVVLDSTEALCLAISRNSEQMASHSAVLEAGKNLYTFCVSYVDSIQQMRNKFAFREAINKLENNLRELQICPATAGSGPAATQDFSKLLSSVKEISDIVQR
PKD2/PRKD2, sequence (Q9BZL6 whole entry): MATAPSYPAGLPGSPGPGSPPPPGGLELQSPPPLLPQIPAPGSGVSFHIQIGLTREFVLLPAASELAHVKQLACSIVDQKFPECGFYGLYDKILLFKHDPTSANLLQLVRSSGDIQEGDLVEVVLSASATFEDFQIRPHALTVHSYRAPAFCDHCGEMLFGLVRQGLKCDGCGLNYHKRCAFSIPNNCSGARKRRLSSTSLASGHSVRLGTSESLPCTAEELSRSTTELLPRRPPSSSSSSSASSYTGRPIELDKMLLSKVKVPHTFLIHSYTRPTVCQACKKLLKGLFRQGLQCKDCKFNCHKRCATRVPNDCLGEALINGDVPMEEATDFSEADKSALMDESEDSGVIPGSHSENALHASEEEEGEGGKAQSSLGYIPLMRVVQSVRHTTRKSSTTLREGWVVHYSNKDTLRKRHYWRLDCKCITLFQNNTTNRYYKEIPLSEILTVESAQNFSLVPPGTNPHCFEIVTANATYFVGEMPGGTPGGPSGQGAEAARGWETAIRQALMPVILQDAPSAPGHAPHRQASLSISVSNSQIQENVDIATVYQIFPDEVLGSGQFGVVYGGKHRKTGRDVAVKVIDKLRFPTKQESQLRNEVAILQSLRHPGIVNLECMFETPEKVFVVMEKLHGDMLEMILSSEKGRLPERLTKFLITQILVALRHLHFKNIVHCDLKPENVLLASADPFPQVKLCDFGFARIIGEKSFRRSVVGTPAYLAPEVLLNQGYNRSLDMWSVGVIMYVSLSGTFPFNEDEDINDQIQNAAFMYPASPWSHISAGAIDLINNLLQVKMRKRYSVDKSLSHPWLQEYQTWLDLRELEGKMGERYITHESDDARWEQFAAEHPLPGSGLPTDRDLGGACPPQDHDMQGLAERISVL

With `Nc1c(N2CCN(C3CCCCC3)CC2)cc(Nc2ccc(C(=O)O)cc2)c2c1C(=O)c1ccccc1C2=O` [Compound 12, 4-{[4-amino-3-(4-cyclohexylpiperazin-1-yl)-9,10-dioxo-9,10-dihydroanthracen-1-yl]amino}benzoic acid], the IC50 in [1] is roughly 7 µM; in [2] it was greater than 10 µM; in assay [3], greater than 10 µM; in assay [4], greater than 10 µM; in [5], greater than 10 µM; in assay [6], 2 to 5 µM. Besides, the values for the IC50 in [7] and in [9] were roughly 5 µM and greater than 10 µM, respectively. The “TGI (%, D18)” value in assay [8] (D18, Compound-12 alone, dose not given) is given as 34%. Also, the “Tumor volume (Mean ± SEM)” value is recorded as 84 ± 4 mm^3 in assay [8] (Day 7, Compound-12 alone, dose not given); 111 ± 5 mm^3 in assay [8] (Day 11, Compound-12 alone, dose not given); 157 ± 15 mm^3 in assay [8] (Day 14, Compound-12 alone, dose not given); 234 ± 8 mm^3 in assay [8] (Day 18, Compound-12 alone, dose not given); 276 ± 27 mm^3 in assay [8] (Day 19, Compound-12 alone, dose not given). The “anti-tumor efficacy in words” value in assay [8] (alone or in combination with gemcitabine) was “efficacious in reducing tumor growth”.

For orientation: IC50 means the concentration that inhibits the measured activity by half.
